Measured values taken from patent US11857565B2, “Hydrophobic Auristatin F compounds and conjugates thereof” (priority 2018, dated 2024).
Starred links: 1 amine or outer side, 2 acyl side, 3 side chain; linkers in the order of their positions; H or OH if unused. Non-standard residues stand in square brackets, D forms with d. Residues, ends and D or L forms follow the SMILES beside them. *: point of attachment. X4 = CC(C)[C@@H](C(=O)[*:2])N(CCCCN(C)C(=O)OC(C)(C)C)[*:1]; Dolaproine = CO[C@@H]([C@@H]1CCCN1)[C@@H](C)C(=O)O; X3 = CC(C)[C@@H](C(=O)[*:2])N(C)CCCCN(C)[*:1]; X16 = CC(CCN(C)[C@H](C(=O)*)C(C)C)CC(C)(C)C; X18 = CCCCCCCCCCCCCCCN(C)[C@H](C(=O)*)C(C)C; X7 = CC(C)[C@@H](C(=O)[*:2])N(C)CCN(C)[*:1]; Dil = CC[C@H](C)[C@H](NC)[C@@H](CC(=O)O)OC; X6 = CC(C)[C@@H](C(=O)[*:2])N(C)CCCN[*:1]; X21 = CCCCCCCCCCCN(C)[C@H](C(=O)*)C(C)C; X8 = CCCCCCCCCCCCN(C)[C@H](C(=O)*)C(C)C; X24 = CC(C)CCCN(C)[C@H](C(=O)*)C(C)C; X22 = CC(C)CCN(C)[C@H](C(=O)*)C(C)C; X23 = CCCN(CCC)[C@H](C(=O)*)C(C)C; X17 = CCN(CC)[C@H](C(=O)*)C(C)C; Boc = CC(C)(C)OC(=O)*

What was measured:
Type in all cases: cell-based
[1] = system: MDR− HL60 acute myeloid leukemia cell line; assay: In vitro cytotoxicity (CellTiter-Glo cell proliferation assay), free drugs on HL60; conditions: Homo sapiens, HL-60, 96 h, read-out: In vitro IC50 HL60 (MDR−)
Protocol: (§1) The cytotoxicity of an auristatin Ligand Drug Conjugate or free auristatin drug was measured by a cell proliferation assay employing the protocol described in Promega Corp. Technical Bulletin TB288; Mendoza et al., 2002, Cancer Res. 62:5485-5488), the methods of which is specifically incorporated by reference herein. Briefly, an aliquot of 100 μl of cell culture containing about […] (e.g., HL-60, SK-MEL-5, etc.) in medium is deposited in each well of a 96-well, opaque-walled plate. Control wells were prepared containing medium and without cells. Free Drug or conjugate is added to the experimental wells and incubated for 96 h and are then equilibrated to room temperature for approximately 30 minutes whereupon a volume of CellTiter-Glo™ reagent equal to the volume of cell culture medium present in each well is added. The contents are mixed for 2 minutes on an orbital shaker to induce cell lysis and the plate is incubated at room temperature for 10 minutes to stabilize the luminescence signal for recordation.

[2] = system: MDR+ HL60/RV acute myeloid leukemia cell line; assay: In vitro cytotoxicity (CellTiter-Glo cell proliferation assay), free drugs on HL60/RV; conditions: Homo sapiens, HL-60, 96 h, read-out: In vitro IC50 HL60/RV (MDR+)
Protocol: as §1

A2058 Melanoma = assay: In vitro cytotoxicity, free drugs on A2058; conditions: Homo sapiens, A2058; free drug
Protocol: as §1

SK-MEL-28 Melanoma = assay: In vitro cytotoxicity, free drugs on SK-MEL-28; conditions: Homo sapiens, SK-MEL-28; free drug
Protocol: as §1

[3] = In vitro cytotoxicity, free drugs on Colo-853; conditions: free drug; read-out: In vitro IC50 Colo-853 Colon Cancer
Protocol: as §1

A375 Melanoma = assay: In vitro cytotoxicity, free drugs on A375; conditions: Homo sapiens, A-375; free drug
Protocol: as §1

SK-MEL-5 Melanoma = assay: In vitro cytotoxicity, free drugs on SK-MEL-5; conditions: Homo sapiens, SK-MEL-5; free drug
Protocol: as §1

IGR-37 Melanoma = assay: In vitro cytotoxicity, free drugs on IGR-37; conditions: Homo sapiens, IGR-37; free drug
Protocol: as §1

Row | Structure (SMILES) | IC50 [1] [nM] | IC50 [2] [nM] | IC50 (A2058 Melanoma) [nM] | IC50 (SK-MEL-28 Melanoma) [nM] | IC50 [3] [nM] | IC50 (A375 Melanoma) [nM] | IC50 (SK-MEL-5 Melanoma) [nM] | IC50 (IGR-37 Melanoma) [nM]
1 | CCCCCCCCCCCN(C)[C@H](C(=O)N[C@H](C(=O)N(C)[C@@H]([C@@H](C)CC)[C@@H](CC(=O)N1CCC[C@H]1[C@H](OC)[C@@H](C)C(=O)N[C@@H](Cc1ccccc1)C(=O)O)OC)C(C)C)C(C)C [Compound 13, Undecyl-AF] (X21-V[Dil][Dolaproine]F-OH) | 1 | 60.2 |  |  |  |  |  | 
2 | CCCCCCCCCCCCN(C)[C@H](C(=O)N[C@H](C(=O)N(C)[C@@H]([C@@H](C)CC)[C@@H](CC(=O)N1CCC[C@H]1[C@H](OC)[C@@H](C)C(=O)N[C@@H](Cc1ccccc1)C(=O)O)OC)C(C)C)C(C)C [Compound 14, Dodecyl-AF] (X8-V[Dil][Dolaproine]F-OH) | 1.4 | 138 |  |  |  |  |  | 
3 | CCCCCCCCCCCCCCCN(C)[C@H](C(=O)N[C@H](C(=O)N(C)[C@@H]([C@@H](C)CC)[C@@H](CC(=O)N1CCC[C@H]1[C@H](OC)[C@@H](C)C(=O)N[C@@H](Cc1ccccc1)C(=O)O)OC)C(C)C)C(C)C [Compound 15, Pentadecyl-AF] (X18-V[Dil][Dolaproine]F-OH) | 4.7 | 294 |  |  |  |  |  | 
4 | CC[C@H](C)[C@@H]([C@@H](CC(=O)N1CCC[C@H]1[C@H](OC)[C@@H](C)C(=O)N[C@@H](Cc1ccccc1)C(=O)O)OC)N(C)C(=O)[C@@H](NC(=O)[C@H](C(C)C)N(C)CCCCN(C)C(=O)OC(C)(C)C)C(C)C [Compound 16, (Boc-N-methyl)-butyl-AF] (Boc-[X3]V[Dil][Dolaproine]F-OH) |  |  | 0.9 | 4.4 | 6.2 | 0.7 | 0.4 | 2.5
5 | CC[C@H](C)[C@@H]([C@@H](CC(=O)N1CCC[C@H]1[C@H](OC)[C@@H](C)C(=O)N[C@@H](Cc1ccccc1)C(=O)O)OC)N(C)C(=O)[C@@H](NC(=O)[C@@H](NCCCCN(C)C(=O)OC(C)(C)C)C(C)C)C(C)C [Compound 17, (Boc-N-methyl)-butyl-AF] (H-[X4]V[Dil][Dolaproine]F-OH) |  |  | 20.3 | 77.3 | 66.2 | 14.8 | 26.2 | 62.7
6 | CC[C@H](C)[C@@H]([C@@H](CC(=O)N1CCC[C@H]1[C@H](OC)[C@@H](C)C(=O)N[C@@H](Cc1ccccc1)C(=O)O)OC)N(C)C(=O)[C@@H](NC(=O)[C@H](C(C)C)N(C)CCCNC(=O)OC(C)(C)C)C(C)C [Compound 18, N-Boc-propyl-AF] (Boc-[X6]V[Dil][Dolaproine]F-OH) |  |  | 9.1 | 21 | 17.5 | 4.9 | 4 | 13.7
7 | CC[C@H](C)[C@@H]([C@@H](CC(=O)N1CCC[C@H]1[C@H](OC)[C@@H](C)C(=O)N[C@@H](Cc1ccccc1)C(=O)O)OC)N(C)C(=O)[C@@H](NC(=O)[C@H](C(C)C)N(C)CCCC(C)C)C(C)C [Compound 19, 4-Methylpentyl-AF] (X24-V[Dil][Dolaproine]F-OH) | 4.9 | 20.5 |  |  |  |  |  | 
8 | CC[C@H](C)[C@@H]([C@@H](CC(=O)N1CCC[C@H]1[C@H](OC)[C@@H](C)C(=O)N[C@@H](Cc1ccccc1)C(=O)O)OC)N(C)C(=O)[C@@H](NC(=O)[C@H](C(C)C)N(C)CCC(C)CC(C)(C)C)C(C)C (stereo partly shown) [Compound 20, 3,5,5-Trimethylhexyl-AF] (X16-V[Dil][Dolaproine]F-OH) | 1 | 17 |  |  |  |  |  | 
9 | CC[C@H](C)[C@@H]([C@@H](CC(=O)N1CCC[C@H]1[C@H](OC)[C@@H](C)C(=O)N[C@@H](Cc1ccccc1)C(=O)O)OC)N(C)C(=O)[C@@H](NC(=O)[C@H](C(C)C)N(C)CCC(C)C)C(C)C [Compound 21, 3-Methylbutyl-AF] (X22-V[Dil][Dolaproine]F-OH) | 9 | 46.3 |  |  |  |  |  | 
10 | CC[C@H](C)[C@@H]([C@@H](CC(=O)N1CCC[C@H]1[C@H](OC)[C@@H](C)C(=O)N[C@@H](Cc1ccccc1)C(=O)O)OC)N(C)C(=O)[C@@H](NC(=O)[C@H](C(C)C)N(CC)CC)C(C)C [Compound 22, Bis(ethyl)-AF] (X17-V[Dil][Dolaproine]F-OH) | 13.6 | 202 |  |  |  |  |  | 
11 | CCCN(CCC)[C@H](C(=O)N[C@H](C(=O)N(C)[C@@H]([C@@H](C)CC)[C@@H](CC(=O)N1CCC[C@H]1[C@H](OC)[C@@H](C)C(=O)N[C@@H](Cc1ccccc1)C(=O)O)OC)C(C)C)C(C)C [Compound 23, Bis(propyl)-AF] (X23-V[Dil][Dolaproine]F-OH) | 6.2 | 437 |  |  |  |  |  | 
12 | CC[C@H](C)[C@@H]([C@@H](CC(=O)N1CCC[C@H]1[C@H](OC)[C@@H](C)C(=O)N[C@@H](Cc1ccccc1)C(=O)O)OC)N(C)C(=O)[C@@H](NC(=O)[C@H](C(C)C)N(C)CCN(C)C(=O)OC(C)(C)C)C(C)C [Compound 24, Boc-(N-methyl-ethyl)-AF] (Boc-[X7]V[Dil][Dolaproine]F-OH) |  |  | 5.2 | 13.9 | 19.6 | 4.9 | 5.7 | 23.1
